The record followed here is patent US9371292B2, “Quinazoline derivative, preparation method therefor, intermediate, composition and application thereof” (SHANGHAI PHARMACEUTICALS HOLDINGS CO., LTD., priority 2011, dated 2016).

For orientation: IC50 means the concentration that inhibits the measured activity by half.

One data set deals with HER2 (Homo sapiens, UniProt P04626). As to the kind of experiment: Mobility shift assay, kinase inhibition (HER2). The note with it: read-out: Kinase inhibitory activity IC50 (nM) HER2. Format: biochemical. How it is done: (§1) Enzyme activity assay was test by the Mobility shift assay method (Expert Opin Drug Discov. 2008, 3(6): 607-621). A 10 mM stock solution of the test compound in DMSO were made after weighing. According to the required concentration, proper quantity of the 10 mM stock solution was dissolved in water to get a work solution with a concentration 5 times the final concentration. And various kinases, EGFR, HER2, HER4 were dissolved into a reaction buffer with a concentration 1.25 times the required concentration (62.5 mM HEPES, pH7.5, 0.001875% Brij-35, 12.5 mM MgCl2, 2.5 mM DTT), and get a enzyme work solution with a concentration 2.5 times the final concentration. At the same time, ATP and FAM tag peptide substrates will be dissolved in the reaction buffer with a concentration of 1.25× to get a substrate and ATP working solution with a concentration 2.5 times the required concentration. Then 5 μl the work solution of compound is added to 384 wells test plate, 5 μl 250 mM EDTA is added to a blank control, the same volume of work solution without drug is added to the negative control (Max). 10 μl Enzyme work solution is added at the same time. After mix gently and hatch for 10 minutes at room temperature, 10 μl substrate and ATP work solution are added to each well. The test plates are placed at 28 degrees for 60 mins. Then 25 μl suspending liquid is added into each reaction well (100 mM HEPES, pH7.5, 0.015% Brij-35, 0.2% Coating Reagent#3, 50 mM EDTA) to quench the enzyme reaction. Finally, the plate is put on Caliper EZ reader to collect conversion rate of the substrate in each well (The phosphorylation ratio of the substrate caused by the kinases). Based on the data described above, the kinase inhibitory of the compound can be calculated as follows: % inh=(Max−conversion)/(Max−Min)×100, wherein % inh is percent inhibition, Max is the conversion ratio of the substrate in negative control well, min is the conversion ratio of the substrate in blank control well, conversion is the conversion rate of substrate in each well with various concentration of the test compound. The % inh value of each concentration of the test compound would be analyzed in Xlift to obtain the corresponding IC50 value, the curve fitting formula is: Y=Bottom+(Top−Bottom)/(1+10^((Log IC50−X)*Hillslope))
Chain of HER2 (P04626 23-1255): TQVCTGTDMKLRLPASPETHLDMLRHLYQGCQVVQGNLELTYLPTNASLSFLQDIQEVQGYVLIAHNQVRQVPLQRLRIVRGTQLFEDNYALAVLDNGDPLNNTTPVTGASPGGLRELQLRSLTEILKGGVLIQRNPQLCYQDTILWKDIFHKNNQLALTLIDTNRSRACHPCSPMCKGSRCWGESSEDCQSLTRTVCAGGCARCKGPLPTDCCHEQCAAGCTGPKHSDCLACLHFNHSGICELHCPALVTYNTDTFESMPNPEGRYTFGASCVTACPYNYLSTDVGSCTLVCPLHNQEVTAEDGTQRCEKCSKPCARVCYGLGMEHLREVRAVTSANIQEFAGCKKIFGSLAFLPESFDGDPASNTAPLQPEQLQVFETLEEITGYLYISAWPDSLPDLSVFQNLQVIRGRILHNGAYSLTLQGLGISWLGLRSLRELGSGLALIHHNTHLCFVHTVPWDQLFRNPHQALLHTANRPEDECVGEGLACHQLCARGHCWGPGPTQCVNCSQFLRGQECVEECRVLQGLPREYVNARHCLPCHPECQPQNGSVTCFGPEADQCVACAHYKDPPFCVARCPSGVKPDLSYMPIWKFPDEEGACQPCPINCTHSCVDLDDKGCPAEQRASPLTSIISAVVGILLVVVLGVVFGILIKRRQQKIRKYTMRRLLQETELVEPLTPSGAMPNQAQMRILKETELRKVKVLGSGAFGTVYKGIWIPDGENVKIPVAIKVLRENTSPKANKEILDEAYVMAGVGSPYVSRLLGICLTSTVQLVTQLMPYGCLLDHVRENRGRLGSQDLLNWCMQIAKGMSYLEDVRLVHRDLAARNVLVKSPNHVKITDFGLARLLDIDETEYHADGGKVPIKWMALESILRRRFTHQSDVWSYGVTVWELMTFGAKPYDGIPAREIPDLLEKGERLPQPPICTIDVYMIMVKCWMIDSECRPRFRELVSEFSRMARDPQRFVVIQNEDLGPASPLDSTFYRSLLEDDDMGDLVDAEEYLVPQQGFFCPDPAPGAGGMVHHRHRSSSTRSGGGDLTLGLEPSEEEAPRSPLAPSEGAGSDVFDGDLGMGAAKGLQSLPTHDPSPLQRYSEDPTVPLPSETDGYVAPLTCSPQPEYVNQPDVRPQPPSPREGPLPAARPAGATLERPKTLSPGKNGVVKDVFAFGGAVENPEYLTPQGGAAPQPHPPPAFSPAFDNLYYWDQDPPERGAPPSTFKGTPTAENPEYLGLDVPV

For another data set, the target named is HER4 (Homo sapiens, UniProt Q15303). As to the kind of experiment: Mobility shift assay, kinase inhibition (HER4). The note with it: read-out: Kinase inhibitory activity IC50 (nM) HER4. Format: biochemical. How it is done: as §1
Chain of HER4 (Q15303 26-1308): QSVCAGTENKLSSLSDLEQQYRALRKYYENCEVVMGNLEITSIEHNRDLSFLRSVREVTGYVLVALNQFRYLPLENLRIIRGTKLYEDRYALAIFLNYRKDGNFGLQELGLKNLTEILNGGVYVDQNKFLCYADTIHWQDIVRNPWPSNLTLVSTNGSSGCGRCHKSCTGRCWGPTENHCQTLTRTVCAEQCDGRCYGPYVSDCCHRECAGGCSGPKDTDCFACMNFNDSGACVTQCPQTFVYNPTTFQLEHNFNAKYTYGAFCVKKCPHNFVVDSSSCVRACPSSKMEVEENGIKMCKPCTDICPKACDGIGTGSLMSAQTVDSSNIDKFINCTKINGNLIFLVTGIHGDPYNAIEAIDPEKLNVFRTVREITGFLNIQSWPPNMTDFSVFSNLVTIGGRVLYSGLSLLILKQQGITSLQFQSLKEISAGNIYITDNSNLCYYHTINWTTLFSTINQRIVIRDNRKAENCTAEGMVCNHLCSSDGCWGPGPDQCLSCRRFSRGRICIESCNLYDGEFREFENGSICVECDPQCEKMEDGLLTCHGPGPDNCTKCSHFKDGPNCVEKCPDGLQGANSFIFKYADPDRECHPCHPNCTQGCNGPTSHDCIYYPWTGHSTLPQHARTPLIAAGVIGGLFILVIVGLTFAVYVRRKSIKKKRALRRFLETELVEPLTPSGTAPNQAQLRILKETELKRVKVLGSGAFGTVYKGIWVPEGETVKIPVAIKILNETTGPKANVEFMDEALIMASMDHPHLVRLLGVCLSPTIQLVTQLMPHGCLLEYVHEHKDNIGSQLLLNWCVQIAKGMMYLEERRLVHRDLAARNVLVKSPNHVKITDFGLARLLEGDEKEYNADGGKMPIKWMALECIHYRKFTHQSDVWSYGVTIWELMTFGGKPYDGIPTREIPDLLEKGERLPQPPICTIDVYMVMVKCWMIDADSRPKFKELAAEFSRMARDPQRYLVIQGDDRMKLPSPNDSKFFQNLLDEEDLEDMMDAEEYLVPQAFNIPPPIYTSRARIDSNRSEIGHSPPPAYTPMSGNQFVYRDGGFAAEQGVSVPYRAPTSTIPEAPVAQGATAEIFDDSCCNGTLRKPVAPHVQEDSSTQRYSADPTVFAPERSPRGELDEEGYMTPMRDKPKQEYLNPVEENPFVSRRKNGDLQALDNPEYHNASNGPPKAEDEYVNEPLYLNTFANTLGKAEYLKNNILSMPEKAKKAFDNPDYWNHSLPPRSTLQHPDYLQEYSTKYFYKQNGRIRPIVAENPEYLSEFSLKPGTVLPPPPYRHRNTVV
The target in the next data set is EGFR (Homo sapiens, UniProt P00533). As to the kind of experiment: Mobility shift assay, kinase inhibition (EGFR). The data set is classed as biochemical. The following applies: read-out: Kinase inhibitory activity IC50 (nM) EGFR. As to the method: as §1
Chain of EGFR (P00533 25-1210): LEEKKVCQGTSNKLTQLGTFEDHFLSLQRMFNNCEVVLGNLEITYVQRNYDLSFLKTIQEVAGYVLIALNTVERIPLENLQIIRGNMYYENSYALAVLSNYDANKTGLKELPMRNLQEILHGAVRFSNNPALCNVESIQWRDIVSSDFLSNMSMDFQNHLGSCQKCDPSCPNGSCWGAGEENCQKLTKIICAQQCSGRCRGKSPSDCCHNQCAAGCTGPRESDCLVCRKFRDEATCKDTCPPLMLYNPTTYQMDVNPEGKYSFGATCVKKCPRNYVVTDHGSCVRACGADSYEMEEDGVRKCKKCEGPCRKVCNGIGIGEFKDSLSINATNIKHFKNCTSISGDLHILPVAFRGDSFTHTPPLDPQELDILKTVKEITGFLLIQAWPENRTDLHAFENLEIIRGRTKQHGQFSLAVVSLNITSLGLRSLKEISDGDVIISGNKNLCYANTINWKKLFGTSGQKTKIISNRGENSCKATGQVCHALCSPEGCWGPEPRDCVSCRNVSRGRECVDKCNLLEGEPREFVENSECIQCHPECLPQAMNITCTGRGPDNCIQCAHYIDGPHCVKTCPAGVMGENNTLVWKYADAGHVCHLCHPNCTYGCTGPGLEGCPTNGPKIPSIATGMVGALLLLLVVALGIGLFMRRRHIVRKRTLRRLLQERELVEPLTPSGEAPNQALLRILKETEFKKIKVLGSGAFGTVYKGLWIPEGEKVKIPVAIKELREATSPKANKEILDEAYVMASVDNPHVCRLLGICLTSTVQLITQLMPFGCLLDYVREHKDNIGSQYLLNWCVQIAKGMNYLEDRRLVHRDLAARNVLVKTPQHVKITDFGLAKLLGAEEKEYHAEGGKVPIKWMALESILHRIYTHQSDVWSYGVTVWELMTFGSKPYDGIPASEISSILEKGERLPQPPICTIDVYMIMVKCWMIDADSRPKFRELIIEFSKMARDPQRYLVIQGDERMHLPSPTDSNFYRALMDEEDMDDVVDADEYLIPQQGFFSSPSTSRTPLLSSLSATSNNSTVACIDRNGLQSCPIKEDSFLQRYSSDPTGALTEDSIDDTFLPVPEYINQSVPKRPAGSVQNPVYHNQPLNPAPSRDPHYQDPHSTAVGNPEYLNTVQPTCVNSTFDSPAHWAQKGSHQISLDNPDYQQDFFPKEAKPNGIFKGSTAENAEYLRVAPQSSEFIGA
The next data set concerns NCI-H1975. Format: in vivo, BALB/c nude mice. The following applies: for Inhibition of growth of NCI-H1975 in nude mice (in words): 60 mpk; for Inhibition of growth of NCI-H1975 in nude mice (in words) / Tolerability in mice: 60 mg/kg; for Tolerability in mice: mouse, in vivo, po; for Inhibition of growth of NCI-H1975 in nude mice (in words) / Tumor volume: NCI-H1975 nude mice; for Tumor volume: 60 mg/kg PO QD. The text has this:
Preparation method: dissolve the test compound in 20% PEG400+3% Tween80 to obtain a required concentration; dissolve the control group in 0.5% CMC+0.4% Tween80 to obtain a required concentration.
BALB/c nude mice (Shanghai xipuer-bikai experimental animals company), weight 16-18 g, female. BD matrigel, NCI-H1975 cell (ATCC)
Cells in logarithmic phase were collected. The ratio of medium to matrigel was 1:1. The concentration of cell was adjust to 3×10^7/ml and put into a ice box, then inoculated in each nude mice subcutaneously with 0.2 ml. Then carry out intragastric administration once a day for 5 days and stop administration for 2 days. Administrate for 9 days in total. Dosages are as follows:
The size and weight were measured. The length and width of tumors were measured individually with microcalipers. Tumor volume (V) and relative tumor volume (RTV) was calculated as formula. Day 12, all the nude mouse were killed and the tumors were taken out and pictured. The individual as follows: RTV=Vt/V0, where Vt is and V0 is. and the calculation formula is T/C (%)=mean RTV of the treated group/mean RTV of the control group×100%.
(1) Tumor volume (Tumor Volume, TV), calculation formula: […], wherein a and b presents length and width respectively.
(2) Relative Tumor Volume (RTV), calculation formula: RTV=Vt/V0.
Wherein TV0 is the volume on the day of initial treatment, TVt is the volume on each day of measurement.
(3) The relative tumor increment rate T/C (%), calculation formula: […]
TRTV: treated group RTV; CRTV: negative control group RTV.
Therapeutic effect of compound was expressed in terms of T/C %.

A further data set deals with A431 cell. Put plainly: Proliferation inhibition, A431 cells (CellTiter-Glo). Format: cell-based. The following applies: Homo sapiens, A-431, 48 hours. How it is done: (§2) This example is to determine the proliferation inhibitory activity against wide type of high expression cell lines A431 of EGFR and mutant cell lines NCI-H1975^L858RT790M, the proliferation inhibitory activity in cell-based level of compound is expressed by IC50. The test method is as follows: both cell lines are purchased from American type culture collection (ATCC). The cells are seeded in a white and opaque 384-well culture plate with a proper concentration (A431: 20000 cells/ml medium; H1975: 15000 cells/ml medium), cultured at 37° C. with 5% CO2 for 24 hrs, a series of medicine with gradient concentration is added, generally 10 concentrations, cultured for another 48 hours under the previous conditions. The assays of the proliferation inhibitory activity against the A431 and H1975 cell of the test compounds are performed by the CellTiter-Glo Luminescent Cell Viability Assay and calculate the proliferation inhibitory activity of compound with different concentrations. CellTiter-Glo Luminescent Cell Viability Assay is purchased from Promega. Fit the data of proliferation inhibitory activity against A431 and H1975 of compounds with different concentrations with 4-parameter equation.
On the technique in general: ATP-based viability assays read luminescence as a measure of living cells.

Data set [1] has as its system NCI-H1975 L858R T790M cell. As to the kind of experiment: Proliferation inhibition, H1975 cells (CellTiter-Glo). Format: cell-based. The note with it: Homo sapiens, 48 hours. How it is done:
as §2

The target of another data set is T1, EGFR tyrosine kinase (Homo sapiens, UniProt P00533).
T1 construct: purchased Sigma Aldrich
T1 sequence (P00533 25-1210): as above
Put plainly: HTRF assay, inhibition of EGFR tyrosine kinase. Format: biochemical. The following applies: HTRF method. As to the method: The activity of inhibitory against the kinase of the test compound is expressed by IC50. The assays are performed by Homogeneous time-resolved fluorescence (HTRF) method which is as follows: a series of synthesized analogues with gradient concentration are incubated for 5 minutes in enzymatic solution with specific concentration (for EGFR) at room temperature. Then proper amount of substrate and ATP are added into the reaction mixture to start the enzyme reaction. The assays of the specific concentration of compound is measured by Flexstation III of Molecular device company after the stop buffer and detecting liquid are added to the enzyme reaction system and hatch at room temperature for 1 hour. And the activity of inhibitory against the kinase of the test compound with different concentration will be calculated, then according to the 4-parameter equation, fit the inhibitory activity of the test compound with different concentration to get the IC50. EGFR is purchased from Sigma Aldrich. The HTRF KinEASE-TK is purchased from Cisbio Bioassays. ATP is purchased from Sigma Aldrich.

Counter-ions that a name gives are not always drawn. Like-named read-outs stand apart in the source and are kept apart here.

For `COc1cc2ncnc(Nc3ccc(F)c(Cl)c3)c2cc1NC(=O)C(F)=CCN(C)C` (mixture of isomers) [Compound 1, N-(4-((3-chloro-4-fluorophenyl)amino)-7-methoxyquinazolin-6-yl)-4-(dimethylamino)-2-fluorobut-2-enamide], the results for the 50% inhibitory concentration (IC50) at HER2, at HER4 and on EGFR were 168 nM, 21 nM and 1.7 nM, respectively.
In the case of `COCCOc1cc2ncnc(Nc3ccc(F)c(Cl)c3)c2cc1NC(=O)C(F)=CCN(C)C` (mixture of isomers) [Compound 3-1, N-(4-((3-chloro-4-fluorophenyl)amino)-7-(2-methoxyethoxy)quinazolin-6-yl)-4-(dimethylamino)-2-fluorobut-2-enamide], the IC50 at EGFR turned out to be 2.5 nM.
With `COc1cc2ncnc(Nc3ccc(F)c(Cl)c3)c2cc1NC(=O)/C(F)=C/CN(C)C` [2-1(hydrochloride), (Z)—N-(4-((3-chloro-4-fluorophenyl)amino)-7-methoxyquinazolin-6-yl)-4-(dimethylamino)-2-fluorobut-2-enamide], in the data set on NCI-H1975, the “Inhibition of growth of NCI-H1975 in nude mice (in words)” value is “significantly inhibit the growth” and the Tolerability in mice result is reported as “well tolerated”.
In the case of `COc1cc2ncnc(Nc3ccc(F)c(Cl)c3)c2cc1NC(=O)/C(F)=C/CN(C)C` [Compound 2-1, (Z)—N-(4-((3-chloro-4-fluorophenyl)amino)-7-methoxyquinazolin-6-yl)-4-(dimethylamino)-2-fluorobut-2-enamide], the half-inhibitory concentration (IC50) on HER2 came to 75 nM; on HER4 it was 23 nM; on EGFR it was 1.3 nM. In addition, the Tumor volume in the data set on NCI-H1975 (Day 0) worked out at 190 ± 17 mm^3; in the data set on NCI-H1975 (Day 2), 153 ± 11 mm^3; in the data set with NCI-H1975 (Day 4) it was 121 ± 27 mm^3; in the data set on NCI-H1975 (Day 7), 130 ± 20 mm^3; in the data set with NCI-H1975 (Day 9), 134 ± 27 mm^3; with NCI-H1975 (Day 11), 164 ± 33 mm^3. In addition, the “Inhibition of growth of NCI-H1975 in nude mice (in words)” value in the data set on NCI-H1975 is recorded as “strong inhibitory”.
Consider `COc1cc2ncnc(Nc3ccc(F)c(Cl)c3)c2cc1NC(=O)/C(F)=C\CN(C)C` [Compound 2-2, (E)-N-(4-((3-chloro-4-fluorophenyl)amino)-7-methoxyquinazolin-6-yl)-4-(dimethylamino)-2-fluorobut-2-enamide], for which the results for the IC50 on HER2, on HER4 and on EGFR were 369 nM, 63 nM and 4.5 nM, respectively.
Regarding `COc1cc2ncnc(Nc3ccc(OCc4ccccn4)c(Cl)c3)c2cc1NC(=O)/C(F)=C/CN(C)C` [Compound 4-1, (Z)—N-(4-((3-chloro-4-(pyridin-2-ylmethoxy)phenyl)amino)-7-methoxyquinazolin-6-yl)-4-(dimethylamino)-2-fluorobut-2-enamide], on HER2, the IC50 stood at 62 nM.
For the compound `COc1cc2ncnc(Nc3ccc(OCc4ccccn4)c(Cl)c3)c2cc1NC(=O)/C(F)=C\CN(C)C` [Compound 4-2, (E)-N-(4-((3-chloro-4-(pyridin-2-ylmethoxy)phenyl)amino)-7-methoxyquinazolin-6-yl)-4-(dimethylamino)-2-fluorobut-2-enamide], the figures for the IC50 on HER2, at HER4 and on EGFR were 64 nM, 206 nM and 9.5 nM, respectively.
For the compound `C=C(F)C(=O)Nc1cc2c(Nc3ccc(F)c(Cl)c3)ncnc2cc1OCCCN1CCOCC1` [Compound 5, N-(4-((3-chloro-4-fluorophenyl)amino)-7-(3-morpholinopropoxy)quinazolin-6-yl)-2-fluoroacrylamide], the Tumor volume with NCI-H1975 (Day 0) is 177 ± 17 mm^3; in the data set with NCI-H1975 (Day 2) it was 160 ± 11 mm^3; with NCI-H1975 (Day 4) it was 164 ± 27 mm^3; with NCI-H1975 (Day 7) it was 147 ± 20 mm^3; in the data set with NCI-H1975 (Day 9), 151 ± 27 mm^3; in the data set with NCI-H1975 (Day 11), 131 ± 33 mm^3. Moreover, the Tolerability in mice result in the data set with NCI-H1975 was “well tolerated”. Also, the IC50 in the data set with A431 cell came out at 3200 nM; in data set [1] it was 2500 nM; at EGFR tyrosine kinase it was 0.39 nM.
In the case of `C=C(F)C(=O)Nc1cc2c(Nc3ccc(F)c(Cl)c3F)ncnc2cc1OCC1CCN(C)CC1` [Compound 6, N-(4-((3-chloro-2,4-difluorophenyl)amino)-7-((1-methylpiperidin-4-yl)methoxy)quinazolin-6-yl)-2-fluoroacrylamide], the Tumor volume in the data set on NCI-H1975 (Day 0) was 179 ± 13 mm^3; with NCI-H1975 (Day 2), 154 ± 35 mm^3; in the data set with NCI-H1975 (Day 4), 113 ± 26 mm^3; in the data set on NCI-H1975 (Day 7), 66 ± 16 mm^3; in the data set on NCI-H1975 (Day 9), 58 ± 11 mm^3; with NCI-H1975 (Day 11) it was 57 ± 11 mm^3. Moreover, in the data set on NCI-H1975, the Tolerability in mice entry was “well tolerated”. Further, the IC50 with A431 cell stood at 500 nM; in data set [1] it was 1200 nM; against EGFR tyrosine kinase, 0.54 nM.
